Assay results: PubChem BioAssay (NCI)
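GI50: concentration for 50% inhibition of growth. At the TGI there is no net growth.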

Experiments:
Assay in all cases: inhibition of tumour cell growth, NCI panel, 384-well format
DU-145 prostate = system: DU-145 prostate
RXF 393 renal = system: RXF 393 renal
M14 melanoma = system: M14 melanoma
HCT-15 colon = system: HCT-15 colon
SF-539 CNS = system: SF-539 CNS
U251 glioblastoma = system: U251 glioblastoma
OVCAR-3 ovarian = system: OVCAR-3 ovarian
MDA-MB-435 melanoma = system: MDA-MB-435 melanoma
NCI-H322M lung = system: NCI-H322M lung
RPMI-8226 leukemia = system: RPMI-8226 leukemia
UACC-257 melanoma = system: UACC-257 melanoma
ACHN renal = system: ACHN renal
T-47D breast = system: T-47D breast
NCI/ADR-RES ovarian = system: NCI/ADR-RES ovarian
A549 NSCLC = system: A549 NSCLC
HCT-116 colon = system: HCT-116 colon
HL-60(TB) leukemia = system: HL-60(TB) leukemia
HT29 colon = system: HT29 colon
BT-549 breast = system: BT-549 breast
SNB-19 CNS = system: SNB-19 CNS
MALME-3M melanoma = system: MALME-3M melanoma
SN12C renal = system: SN12C renal
SK-MEL-28 melanoma = system: SK-MEL-28 melanoma
EKVX NSCLC = system: EKVX NSCLC
SF-295 CNS = system: SF-295 CNS
IGROV1 ovarian = system: IGROV1 ovarian
MDA-MB-468 breast = system: MDA-MB-468 breast
PC-3 prostate = system: PC-3 prostate
TK-10 renal = system: TK-10 renal
LOX IMVI melanoma = system: LOX IMVI melanoma
NCI-H522 lung = system: NCI-H522 lung
HS 578T breast = system: HS 578T breast
HOP-62 NSCLC = system: HOP-62 NSCLC
SK-OV-3 ovarian = system: SK-OV-3 ovarian
NCI-H23 lung = system: NCI-H23 lung
K-562 leukemia = system: K-562 leukemia
OVCAR-8 ovarian = system: OVCAR-8 ovarian
A498 renal = system: A498 renal
NCI-H226 lung = system: NCI-H226 lung
CCRF-CEM leukemia = system: CCRF-CEM leukemia
SNB-75 CNS = system: SNB-75 CNS
SF-268 CNS = system: SF-268 CNS
CAKI-1 renal = system: CAKI-1 renal
HOP-92 NSCLC = system: HOP-92 NSCLC
OVCAR-4 ovarian = system: OVCAR-4 ovarian
OVCAR-5 ovarian = system: OVCAR-5 ovarian
UO-31 renal = system: UO-31 renal
SK-MEL-2 melanoma = system: SK-MEL-2 melanoma
MCF7 breast = system: MCF7 breast
786-0 renal = system: 786-0 renal
MDA-MB-231 breast = system: MDA-MB-231 breast
MOLT-4 leukemia = system: MOLT-4 leukemia
KM12 colon = system: KM12 colon
UACC-62 melanoma = system: UACC-62 melanoma
SW-620 colon = system: SW-620 colon

Compound: CC(=O)O[C@]1(C(C)=O)CC[C@H]2[C@@H]3C=C(C)C4=CC(=O)CC[C@]4(C)[C@H]3CC[C@@]21C
- GI50 (DU-145 prostate): > 100 µM
- TGI (DU-145 prostate): > 100 µM
- GI50 (RXF 393 renal): > 100 µM
- TGI (RXF 393 renal): > 100 µM
- GI50 (M14 melanoma): 76.3 µM
- TGI (M14 melanoma): > 100 µM
- GI50 (HCT-15 colon): > 100 µM
- TGI (HCT-15 colon): > 100 µM
- GI50 (SF-539 CNS): > 100 µM
- TGI (SF-539 CNS): > 100 µM
- GI50 (U251 glioblastoma): > 100 µM
- TGI (U251 glioblastoma): > 100 µM
- GI50 (OVCAR-3 ovarian): > 100 µM
- TGI (OVCAR-3 ovarian): > 100 µM
- GI50 (MDA-MB-435 melanoma): > 100 µM
- TGI (MDA-MB-435 melanoma): > 100 µM
- GI50 (NCI-H322M lung): > 100 µM
- TGI (NCI-H322M lung): > 100 µM
- GI50 (RPMI-8226 leukemia): 11.5 µM
- TGI (RPMI-8226 leukemia): 28.1 µM
- GI50 (UACC-257 melanoma): > 100 µM
- TGI (UACC-257 melanoma): > 100 µM
- GI50 (ACHN renal): > 100 µM
- TGI (ACHN renal): > 100 µM
- GI50 (T-47D breast): > 100 µM
- TGI (T-47D breast): > 100 µM
- GI50 (NCI/ADR-RES ovarian): > 100 µM
- TGI (NCI/ADR-RES ovarian): > 100 µM
- GI50 (A549 NSCLC): > 100 µM
- TGI (A549 NSCLC): > 100 µM
- GI50 (HCT-116 colon): 70.7 µM
- TGI (HCT-116 colon): > 100 µM
- GI50 (HL-60(TB) leukemia): 10.5 µM
- TGI (HL-60(TB) leukemia): 22.5 µM
- GI50 (HT29 colon): > 100 µM
- TGI (HT29 colon): > 100 µM
- GI50 (BT-549 breast): > 100 µM
- TGI (BT-549 breast): > 100 µM
- GI50 (SNB-19 CNS): > 100 µM
- TGI (SNB-19 CNS): > 100 µM
- GI50 (MALME-3M melanoma): > 100 µM
- TGI (MALME-3M melanoma): > 100 µM
- GI50 (SN12C renal): > 100 µM
- TGI (SN12C renal): > 100 µM
- GI50 (SK-MEL-28 melanoma): > 100 µM
- TGI (SK-MEL-28 melanoma): > 100 µM
- GI50 (EKVX NSCLC): > 100 µM
- TGI (EKVX NSCLC): > 100 µM
- GI50 (SF-295 CNS): > 100 µM
- TGI (SF-295 CNS): > 100 µM
- GI50 (IGROV1 ovarian): > 100 µM
- TGI (IGROV1 ovarian): > 100 µM
- GI50 (MDA-MB-468 breast): 44.1 µM
- TGI (MDA-MB-468 breast): > 100 µM
- GI50 (PC-3 prostate): 74.7 µM
- TGI (PC-3 prostate): > 100 µM
- GI50 (TK-10 renal): > 100 µM
- TGI (TK-10 renal): > 100 µM
- GI50 (LOX IMVI melanoma): > 100 µM
- TGI (LOX IMVI melanoma): > 100 µM
- GI50 (NCI-H522 lung): > 100 µM
- TGI (NCI-H522 lung): > 100 µM
- GI50 (HS 578T breast): > 100 µM
- TGI (HS 578T breast): > 100 µM
- GI50 (HOP-62 NSCLC): > 100 µM
- TGI (HOP-62 NSCLC): > 100 µM
- GI50 (SK-OV-3 ovarian): > 100 µM
- TGI (SK-OV-3 ovarian): > 100 µM
- GI50 (NCI-H23 lung): > 100 µM
- TGI (NCI-H23 lung): > 100 µM
- GI50 (K-562 leukemia): 20.5 µM
- TGI (K-562 leukemia): 41.7 µM
- GI50 (OVCAR-8 ovarian): > 100 µM
- TGI (OVCAR-8 ovarian): > 100 µM
- GI50 (A498 renal): > 100 µM
- TGI (A498 renal): > 100 µM
- GI50 (NCI-H226 lung): > 100 µM
- TGI (NCI-H226 lung): > 100 µM
- GI50 (CCRF-CEM leukemia): 18.6 µM
- TGI (CCRF-CEM leukemia): 32.9 µM
- GI50 (SNB-75 CNS): > 100 µM
- TGI (SNB-75 CNS): > 100 µM
- GI50 (SF-268 CNS): > 100 µM
- TGI (SF-268 CNS): > 100 µM
- GI50 (CAKI-1 renal): > 100 µM
- TGI (CAKI-1 renal): > 100 µM
- GI50 (HOP-92 NSCLC): > 100 µM
- TGI (HOP-92 NSCLC): > 100 µM
- GI50 (OVCAR-4 ovarian): > 100 µM
- TGI (OVCAR-4 ovarian): > 100 µM
- GI50 (OVCAR-5 ovarian): > 100 µM
- TGI (OVCAR-5 ovarian): > 100 µM
- GI50 (UO-31 renal): > 100 µM
- TGI (UO-31 renal): > 100 µM
- GI50 (SK-MEL-2 melanoma): > 100 µM
- TGI (SK-MEL-2 melanoma): > 100 µM
- GI50 (MCF7 breast): > 100 µM
- TGI (MCF7 breast): > 100 µM
- GI50 ([…]-0 renal): > 100 µM
- TGI (786-0 renal): > 100 µM
- GI50 (MDA-MB-231 breast): > 100 µM
- TGI (MDA-MB-231 breast): > 100 µM
- GI50 (MOLT-4 leukemia): 14.1 µM
- TGI (MOLT-4 leukemia): 29.3 µM
- GI50 (KM12 colon): > 100 µM
- TGI (KM12 colon): > 100 µM
- GI50 (UACC-62 melanoma): > 100 µM
- TGI (UACC-62 melanoma): > 100 µM
- GI50 (SW-620 colon): > 100 µM
- TGI (SW-620 colon): > 100 µM
